Assay results published in ChEMBL document CHEMBL5154795, “Exploring the structure-activity relationships of diphenylurea as an antibacterial scaffold active against methicillin- and vancomycin-resistant Staphylococcus aureus” (Eur J Med Chem, 2022).
Values after ≈ are worked out from the molar mass of the structure shown. Active and inactive are the calls of the source. The calls are words filed in the database; no cut-off is given here.

What was measured:
Staphylococcus aureus [1] = experiment: Antibacterial activity against methicillin-resistant Staphylococcus aureus NRS 119 incubated for 18 to 20 hrs by broth microdilution method; assay type: functional; details: time 18-20 hrs
Erythrocyte = experiment: Hemolytic activity in rabbit erythrocytes at 128 ug/ml incubated for 30 min by absorbance based analysis; assay type: toxicity, cell-based, Oryctolagus cuniculus; details: 0.5 h, dose 128 µg/ml
Staphylococcus aureus [2] = experiment: Potentiation of vancomycin-induced antibacterial activity against vancomycin-resistant Staphylococcus aureus 3b assessed as vancomycin MIC at 0.5 times MIC incubated for 18 to 20 hrs by broth microdilution method; assay type: functional; details: time 18-20 hrs
Staphylococcus aureus [3] = experiment: Antibacterial activity against methicillin-resistant Staphylococcus aureus USA300 infected in BALB/c mouse assessed as recovery of body weight loss administered 72 hrs post infection topically twice daily for 4 days; assay type: functional, organism-based; details: time 4.0 day
Staphylococcus aureus [4] = experiment: Antibacterial activity against methicillin-resistant Staphylococcus aureus NRS 385 (USA500) incubated for 18 to 20 hrs by broth microdilution method; assay type: functional; details: time 18-20 hrs
[5] = Hemolytic activity in rabbit erythrocytes at 64 ug/ml incubated for 30 min by absorbance based analysis relative to control; assay type: toxicity, cell-based, Oryctolagus cuniculus, Erythrocyte; details: at 64 µg/mL, read-out: Activity
Staphylococcus aureus [6] = experiment: Potentiation of vancomycin-induced antibacterial activity against vancomycin-resistant Staphylococcus aureus 1 assessed as vancomycin MIC at 0.5 times MIC incubated for 18 to 20 hrs by broth microdilution method; assay type: functional; details: time 18-20 hrs
Staphylococcus aureus [7] = experiment: Potentiation of vancomycin-induced antibacterial activity against vancomycin-resistant Staphylococcus aureus 2 assessed as vancomycin MIC at 0.5 times MIC incubated for 18 to 20 hrs by broth microdilution method; assay type: functional; details: time 18-20 hrs
Staphylococcus aureus [8] = experiment: Potentiation of vancomycin-induced antibacterial activity against vancomycin-resistant Staphylococcus aureus 3 assessed as vancomycin MIC at 0.5 times MIC incubated for 18 to 20 hrs by broth microdilution method; assay type: functional; details: time 18-20 hrs
[9] = tested on: Staphylococcus epidermidis; experiment: Antibacterial activity against Staphylococcus epidermidis NRS 101 incubated for 18 to 20 hrs by broth microdilution method; assay type: functional; details: time 18-20 hrs
Staphylococcus aureus [10] = experiment: Antibacterial activity against Vancomycin-resistant Staphylococcus aureus 9 incubated for 18 to 20 hrs by broth microdilution method; assay type: functional; details: time 18-20 hrs
Staphylococcus aureus [11] = experiment: Antibacterial activity against Vancomycin-resistant Staphylococcus aureus 12 incubated for 18 to 20 hrs by broth microdilution method; assay type: functional; details: time 18-20 hrs
Staphylococcus aureus [12] = experiment: Antibacterial activity against methicillin-resistant Staphylococcus aureus NRS 386 (USA700) incubated for 18 to 20 hrs by broth microdilution method; assay type: functional; details: time 18-20 hrs
Staphylococcus aureus [13] = experiment: Potentiation of vancomycin-induced antibacterial activity against vancomycin-resistant Staphylococcus aureus 10 assessed as vancomycin MIC at 0.5 times MIC incubated for 18 to 20 hrs by broth microdilution method; assay type: functional; details: time 18-20 hrs
[14] = Hemolytic activity in rabbit erythrocytes at 32 ug/ml incubated for 30 min by absorbance based analysis relative to control; assay type: toxicity, cell-based, Oryctolagus cuniculus, Erythrocyte; details: at 32 µg/mL, read-out: Activity
[15] = Cytotoxicity against human HaCaT cells assessed as cell viability at 64 ug/ml incubated for 24 hrs by MTS assay relative to control; assay type: toxicity, cell-based; details: at 64 µg/mL, read-out: Activity
Staphylococcus aureus [16] = experiment: Antibacterial activity against methicillin-sensitive Staphylococcus aureus ATCC 6538 incubated for 18 to 20 hrs by broth microdilution method; assay type: functional; details: time 18-20 hrs
Staphylococcus aureus [17] = experiment: Antibacterial activity against methicillin-resistant Staphylococcus aureus USA400 NRS 123 assessed as time of post-antibiotic effect at 5 times MIC incubated for 2 hrs followed by compound washout and measured every single 1 hr; assay type: functional
Staphylococcus aureus [18] = experiment: Antibacterial activity against methicillin-resistant Staphylococcus aureus USA300 infected in BALB/c mouse assessed as reduction in bacterial count administered 72 hrs post infection topically twice daily for 4 days; assay type: functional, organism-based; details: time 4.0 day
Staphylococcus aureus [19] = experiment: Antibacterial activity against methicillin-sensitive Staphylococcus aureus NRS 107 incubated for 18 to 20 hrs by broth microdilution method; assay type: functional; details: time 18-20 hrs
Caco-2 [20] = experiment: Cytotoxicity against human Caco-2 cells assessed as reduction in cell viability at 64 ug/ml incubated for 24 hrs by MTS assay; assay type: toxicity, cell-based; details: caco-2, 24 h, dose 64 µg/ml
Staphylococcus aureus [21] = experiment: Antibacterial activity against Vancomycin-resistant Staphylococcus aureus 10 incubated for 18 to 20 hrs by broth microdilution method; assay type: functional; details: time 18-20 hrs
Staphylococcus aureus [22] = experiment: Antibacterial activity against methicillin-resistant Staphylococcus aureus USA300 infected in BALB/c mouse assessed as reduction in bacterial count in spleen administered 72 hrs post infection topically twice daily for 4 days; assay type: functional, organism-based; details: time 4.0 day
Staphylococcus aureus [23] = experiment: Potentiation of vancomycin-induced antibacterial activity against vancomycin-resistant Staphylococcus aureus 13 assessed as vancomycin MIC at 0.5 times MIC incubated for 18 to 20 hrs by broth microdilution method; assay type: functional; details: time 18-20 hrs
Caco-2 [24] = experiment: Cytotoxicity against human Caco-2 cells at 128 ug/ml incubated for 24 hrs by MTS assay; assay type: toxicity, cell-based; details: caco-2, 24 h, dose 128 µg/ml
Staphylococcus aureus [25] = experiment: Potentiation of vancomycin-induced antibacterial activity against vancomycin-resistant Staphylococcus aureus 9 assessed as vancomycin MIC at 0.5 times MIC incubated for 18 to 20 hrs by broth microdilution method; assay type: functional; details: time 18-20 hrs
Staphylococcus aureus [26] = experiment: Antibacterial activity against methicillin-resistant Staphylococcus aureus NRS 384 (USA300) incubated for 18 to 20 hrs by broth microdilution method; assay type: functional; details: time 18-20 hrs
Staphylococcus aureus [27] = experiment: Antibacterial activity against methicillin-resistant Staphylococcus aureus NRS 123 (USA400) incubated for 18 to 20 hrs by broth microdilution method; assay type: functional; details: time 18-20 hrs
Staphylococcus aureus [28] = experiment: Potentiation of vancomycin-induced antibacterial activity against vancomycin-resistant Staphylococcus aureus 12 assessed as vancomycin MIC at 0.5 times MIC incubated for 18 to 20 hrs by broth microdilution method; assay type: functional; details: time 18-20 hrs
Staphylococcus aureus [29] = experiment: Antibacterial activity against methicillin-resistant Staphylococcus aureus USA300 incubated for 18 to 20 hrs by broth microdilution method; assay type: functional; details: time 18-20 hrs
Staphylococcus aureus [30] = experiment: Induction of drug resistance in methicillin-resistant Staphylococcus aureus USA400 NRS 123 assessed as fold increase in MIC measured after 15 passages by broth microdilution assay; assay type: functional
[31] = Cytotoxicity against human Caco-2 cells assessed as cell viability at upto 128 ug/ml incubated for 24 hrs by MTS assay relative to control; assay type: toxicity, cell-based; details: up to 128 µg/mL, read-out: Activity
[32] = Cytotoxicity against human HaCaT cells assessed as cell viability upto 128 ug/ml incubated for 24 hrs by MTS assay relative to control; assay type: toxicity, cell-based; details: up to 128 µg/mL, read-out: Activity

SMILES | MIC (Staphylococcus aureus [1]) | MIC (Staphylococcus aureus [2]) | Activity (Staphylococcus aureus [3]) | MIC (Staphylococcus aureus [4]) | MIC (Staphylococcus aureus [6]) | MIC (Staphylococcus aureus [7]) | MIC (Staphylococcus aureus [8]) | MIC [9] | MIC (Staphylococcus aureus [10]) | MIC (Staphylococcus aureus [11]) | MIC (Staphylococcus aureus [12]) | viability at 24 h, 64 ug/ml [15] | MIC (Staphylococcus aureus [16]) | Time (Staphylococcus aureus [17]) | MIC (Staphylococcus aureus [19]) | MIC (Staphylococcus aureus [21]) | MIC (Staphylococcus aureus [26]) | MIC (Staphylococcus aureus [27]) | MIC (Staphylococcus aureus [29]) | viability at 24 h [31] | also measured
C/C(=N\NC(=N)N)c1ccc(NC(=O)Nc2ccc(/C=C/CC(C)C)cc2)cc1 | 4 µg/mL (≈ 10.2 µM) | 8 µg/mL | Active | 4 µg/mL (≈ 10.2 µM) | 4 µg/mL | 4 µg/mL | 2 µg/mL | 4 µg/mL (≈ 10.2 µM) | 4 µg/mL (≈ 10.2 µM) | 8 µg/mL (≈ 20.4 µM) | 4 µg/mL (≈ 10.2 µM) | 100% | 4 µg/mL (≈ 10.2 µM) | 5 h | 4 µg/mL (≈ 10.2 µM) | 8 µg/mL (≈ 20.4 µM) | 2 µg/mL (≈ 5.1 µM) | 4 µg/mL (≈ 10.2 µM) |  |  | Activity (Erythrocyte): Toxic; hemolysis at 0.5 h, 64 ug/ml [5]: 50%; MIC (Staphylococcus aureus [13]): 16 µg/mL; hemolysis at 0.5 h, 32 ug/ml [14]: < 10%; Activity (Staphylococcus aureus [18]): Active; Activity (Caco-2 [20]): Non-Toxic; Activity (Staphylococcus aureus [22]): Active; MIC (Staphylococcus aureus [23]): 16 µg/mL; Activity (Caco-2 [24]): Toxic; MIC (Staphylococcus aureus [25]): 16 µg/mL; MIC (Staphylococcus aureus [28]): 64 µg/mL
C/C(=N\NC(=N)N)c1ccc(NC(=O)Nc2ccc(-c3cc4ccccc4o3)cc2)cc1 |  |  |  |  |  |  |  |  |  |  |  |  |  |  |  |  |  |  | 4 µg/mL (≈ 9.38 µM) |  | 
C/C(=N\NC(=N)N)c1ccc(NC(=O)Nc2ccc(-c3cccs3)cc2)cc1 | 16 µg/mL (≈ 40.8 µM) |  |  | 8 µg/mL (≈ 20.4 µM) |  |  |  | 8 µg/mL (≈ 20.4 µM) | 8 µg/mL (≈ 20.4 µM) | 8 µg/mL (≈ 20.4 µM) | 4 µg/mL (≈ 10.2 µM) |  | 4 µg/mL (≈ 10.2 µM) | 3 h | 2 µg/mL (≈ 5.1 µM) | 16 µg/mL (≈ 40.8 µM) | 4 µg/mL (≈ 10.2 µM) | 4 µg/mL (≈ 10.2 µM) | 4 µg/mL (≈ 10.2 µM) | 100% | fold change (FC) (Staphylococcus aureus [30]): 1; viability at 24 h [32]: 100%
C/C(=N\NC(=N)N)c1ccc(NC(=O)Nc2ccc(/C=C/c3ccccc3)cc2)cc1 | 16 µg/mL (≈ 38.8 µM) |  |  | 8 µg/mL (≈ 19.4 µM) |  |  |  | 8 µg/mL (≈ 19.4 µM) | 16 µg/mL (≈ 38.8 µM) | 8 µg/mL (≈ 19.4 µM) | 4 µg/mL (≈ 9.7 µM) | 100% | 16 µg/mL (≈ 38.8 µM) | 3 h | 8 µg/mL (≈ 19.4 µM) | 8 µg/mL (≈ 19.4 µM) | 2 µg/mL (≈ 4.85 µM) | 4 µg/mL (≈ 9.7 µM) |  |  | fold change (FC) (Staphylococcus aureus [30]): 1; Activity (Caco-2 [20]): Non-Toxic; Activity (Caco-2 [24]): Toxic
C/C(=N\NC(=N)N)c1ccc(NC(=O)Nc2ccc(-c3ccco3)cc2)cc1 | 4 µg/mL (≈ 10.6 µM) | 8 µg/mL | Active | 8 µg/mL (≈ 21.3 µM) | 2 µg/mL | 8 µg/mL | 2 µg/mL | 2 µg/mL (≈ 5.31 µM) | 4 µg/mL (≈ 10.6 µM) | 4 µg/mL (≈ 10.6 µM) | 2 µg/mL (≈ 5.31 µM) | 100% | 2 µg/mL (≈ 5.31 µM) | 5 h | 8 µg/mL (≈ 21.3 µM) | 4 µg/mL (≈ 10.6 µM) | 4 µg/mL (≈ 10.6 µM) | 2 µg/mL (≈ 5.31 µM) | 4 µg/mL (≈ 10.6 µM) | 100% | MIC (Staphylococcus aureus [13]): 8 µg/mL; hemolysis at 0.5 h, 32 ug/ml [14]: < 2%; MIC (Staphylococcus aureus [23]): 512 µg/mL; MIC (Staphylococcus aureus [25]): 128 µg/mL; MIC (Staphylococcus aureus [28]): 512 µg/mL
C/C(=N\NC(=N)N)c1ccc(NC(=O)Nc2ccc(/C=C/C3CCCCC3)cc2)cc1 | 4 µg/mL (≈ 9.56 µM) |  |  | 8 µg/mL (≈ 19.1 µM) |  |  |  | 8 µg/mL (≈ 19.1 µM) | 8 µg/mL (≈ 19.1 µM) | 8 µg/mL (≈ 19.1 µM) | 8 µg/mL (≈ 19.1 µM) | 100% | 4 µg/mL (≈ 9.56 µM) | 6 h | 4 µg/mL (≈ 9.56 µM) | 8 µg/mL (≈ 19.1 µM) | 2 µg/mL (≈ 4.78 µM) | 4 µg/mL (≈ 9.56 µM) |  | 100% | 
